22 molecules from patent US10087178B2, “Substituted spiropyrido[1,2-a]pyrazine derivative and medicinal use thereof as HIV integrase inhibitor” (priority 2012, dated 2018) can be followed below.

pEC50: −log10 of the molar value. Structures can show the parent of a compound that is named as a salt.

One test relates to HIV-1 NL4-3 strain. Briefly: Evaluation of antiviral activity: acute infection system of MT-4 cell with HIV-1 NL4-3 strain. It is filed as cell-based. As to conditions: Human immunodeficiency virus 1, NL43, MT4, 120 h, MT-4 cells infected with HIV-1 NL4-3 strain (MOI 0.05), cultured 5 days, Cell Titer-Glo; read-out: antiviral activity (EC50). In general terms: ATP-based viability assays read luminescence as a measure of living cells.
The pEC50 is the negative decadic logarithm of the EC50, by convention in mol/L. Regarding `COC[C@H]1C[C@@]12CN(C(C)C)C(=O)c1c(O)c(=O)c(C(=O)NCc3cccc(Cl)c3F)cn12` [Example T12, (1S,2S)-N-(3-chloro-2-fluorobenzyl)-9′-hydroxy-2′-isopropyl-2-(methoxymethyl)-1′,8′-dioxo-1′,2′,3′,8′-tetrahydrospiro[cylcopropane-1,4′-pyrido[1,2-a]pyrazine]-7′-carboxamide hydrochloride], the pEC50 is 8.24.

With `CCN1C[C@@]2(C[C@@H]2C(=O)O)n2cc(C(=O)NCc3ccc(F)cc3F)c(=O)c(O)c2C1=O` [Example T7, (1S,2S)-7′-(2,4-difluorobenzylcarbamoyl)-2′-ethyl-9′-hydroxy-1′,8′-dioxo-1′,2′,3′,8′-tetrahydrospiro[cyclopropane-1,4′-pyrido[1,2-a]pyrazine]-2-carboxylic acid hydrochloride], the pEC50 is 7.82.

As for `COC[C@H]1C[C@@]12CN(C)C(=O)c1c(O)c(=O)c(C(=O)NCc3cccc(Cl)c3F)cn12` [Example T16, (1S.2S)-N-(3-chloro-2-fluorobenzyl)-9′-hydroxy-2-(methoxymethyl)-2′-methyl-1′,8′-dioxo-1′,2′,3′,8′-tetrahydrospiro[cyclopropane-1,4′-pyrido[1,2-a]pyrazine]-7′-carboxamide hydrochloride], the pEC50 was 8.38.

With `CCN1C[C@@]2(C[C@@H]2COC)n2cc(C(=O)NCc3ccc(F)cc3F)c(=O)c(O)c2C1=O` [Example T2, (1S,2S)-N-(2,4-difluroobenzyl)-2′-ethyl-9′-hydroxy-2-(methoxymethyl)-1′,8′-dioxo-1′,2′,3′,8′-tetrahydrospiro[cyclopropane-1,4′-pyrido[1,2-a]pyrazine]-7′-carboxamide hydrochloride], the pEC50 was 8.38.

With `CCOC[C@H]1C[C@@]12CN(C)C(=O)c1c(O)c(=O)c(C(=O)NCc3ccc(OC)c(Cl)c3F)cn12` [Example T31, (1S,2S)-N-(3-chloro-2-fluoro-4-methoxybenzyl)-2-(ethoxymethyl)-9′-hydroxy-2′-methyl-1′,8′-dioxo-1′,2′,3′,8′-tetrahydrospiro[cyclopropane-1,4′-pyrido[1,2-a]pyrazine]-7′-carboxamide], the pEC50 is 7.92.

For `CCO[C@H]1C[C@]2(CN(C)C(=O)c3c(O)c(=O)c(C(=O)NCc4cccc(Cl)c4F)cn32)C1` [Example S29, N-(3-chloro-2-fluorobenzyl)- cis-3-ethoxy-9′-hydroxy-2′-methyl-1′,8′-dioxo-1′,2′,3′,8′-tetrahydrospiro[cyclobutane-1,4′-pyrido[1,2-a]pyrazine]-7′-carboxamide hydrochloride], the pEC50 was 8.37.

For the molecule `CCN1C(=O)c2c(O)c(=O)c(C(=O)NCc3cccc(Cl)c3F)cn2C[C@]12C[C@@H](CO)C2` [Example S58, N-(3-chloro-2-fluorobenzyl)-2′-ethyl-9′-hydroxy-trans-3-(hydroxymethyl)-1′,8′-dioxo-1′,2′,4′,8′-tetrahydrospiro[cyclobutane-1,3′-pyrido[1,2-a]pyrazine]-7′-carboxamide hydrochloride], the pEC50 is 8.17.

On to `COC[C@H]1C[C@@]12CN(C)C(=O)c1c(O)c(=O)c(C(=O)NCc3cc(N4CCCC4=O)cc(Cl)c3F)cn12` [Example T34, (1S,2S)-N-(3-chloro-2-fluoro-5-(2-oxopyrrolidin-1-yl)benzyl)-9′-hydroxy-2-(methoxymethyl)-2′-methyl-1′,8′-dioxo-1′,2′,3′,8′-tetrahydrospiro[cyclopropane-1,4′-pyrido[1,2-a]pyrazine]-7′-carboxamide], for which the pEC50 was 7.64.

Regarding `COC[C@H]1C[C@@]12CN(C)C(=O)c1c(O)c(=O)c(C(=O)NCc3cc(OC)cc(Cl)c3F)cn12` [Example T21, (1S,2S)-N-(3-chloro-2-fluoro-5-methoxybenzyl)-9′-hydroxy-2-(methoxymethyl)-2′-methyl-1′,8′-dioxo-1′,2′,3′,8′-tetrahydrospiro[cyclopropane-1,4′-pyrido[1,2-a]pyrazine]-7′-carboxamide], the pEC50 is 8.21.

Take `COC[C@H]1C[C@]2(CN(C)C(=O)c3c(OC(=O)c4ccccc4)c(=O)c(C(=O)NCc4cccc(Cl)c4F)cn32)C1` [Example S70, 7′-(3-chloro-2-fluorobenzylcarbamoyl)-cis-3-(methoxymethyl)-2′-methyl-1′,8′-dioxo-1′,2′,3′,8′-tetrahydrospiro[cyclobutane-1,4′-pyrido[1,2-a]pyrazin]-9′-yl benzoate]: the pEC50 is 8.85.

For `COC[C@H]1C[C@@]12Cn1cc(C(=O)NCc3ccc(F)cc3F)c(=O)c(O)c1C(=O)N2C(C)C` [Example T41, (1S,2S)-N-(2,4-difluorobenzyl)-9′-hydroxy-2′-isopropyl-2-(methoxymethyl)-1′,8′-dioxo-1′,2′,4′,8′-tetrahydrospiro[cyclopropane-1,3′-pyrido[1,2-a]pyrazine]-7′-carboxamide], the pEC50 was 8.66.

The test is the same for the next values; noted with them: Human immunodeficiency virus 1, NL43, MT4, 120 h, antiviral activity; MT-4 cells infected with HIV-1 NL4-3 (MOI 0.05), 5 days culture, Cell Titer-Glo luminescence.
In the case of `CC(C)N1C[C@]2(C[C@H]2CO)n2cc(C(=O)NCc3ccc(F)cc3F)c(=O)c(O)c2C1=O` [Example 11, (1R,2R)—N-(2,4-difluorobenzyl)-9′-hydroxy-2-(hydroxymethyl)-2′-isopropyl-1′,8′-dioxo-1′,2′,3′,8′-tetrahydrospiro[cyclopropane-1,4′-pyrido[1,2-a]pyrazine]-7′-carboxamide hydrochloride], the pEC50 is 8.24.

Still in this test, the particulars now being: Human immunodeficiency virus 1, NL43, MT4, 120 h, antiviral activity; MT-4 cells infected with HIV-1 NL4-3 (MOI 0.05), 5 days culture, Cell Titer-Glo luminescence; read-out: EC50.
`CO[C@H]1C[C@@]2(CN(C)C(=O)c3c(O)c(=O)c(C(=O)NCc4ccc(F)cc4F)cn32)C1` [Example S13, N-(2,4-difluorobenzyl)-9′-hydroxy-trans-3-methoxy-2′-methyl-1′,8′-dioxo-1′,2′,3′,8′-tetrahydrospiro[1,2-a]pyrazine]-1,4′-pyrido[1,2-a]pyrazine]-7′-carboxamide hydrochloride]: the pEC50 is 8.35.

With `CN1C[C@]2(C[C@H](O)C2)n2cc(C(=O)NCc3ccc(F)cc3F)c(=O)c(O)c2C1=O` [Example S12, N-(2,4-difluorobenzyl)-cis-3,9′-dihydroxy-2′-methyl-1′,8′-dioxo-1′,2′,3′,8′-tetrahydrospiro[cyclobutane-1,4′-pyrido[1,2-a]pyrazine]-7′-carboxamide hydrobromide], the pEC50 was 7.64.

For the molecule `CN1C[C@]2(C[C@@H](OCc3ccccc3)C2)n2cc(C(=O)NCc3ccc(F)cc3F)c(=O)c(O)c2C1=O` [Example S9, trans-3-(benzyloxy)-N-(2,4-difluorobenzyl)-9′-hydroxy-2′-methyl-1′,8′-dioxo-1′,2′,3′,8′-tetrahydrospiro[cyclobutane-1,4′-pyrido[1,2-a]pyrazine]-7′-carboxamide hydrochloride], the pEC50 was 8.28.

The same test, now with this note: Human immunodeficiency virus 1, NL43, MT4, 120 h, read-out: antiviral activity (EC50), MT-4 cells infected with HIV-1 NL4-3 strain (MOI 0.05), cultured 5 days, Cell Titer-Glo.
Turning to `COC[C@H]1C[C@@]12CN(C)C(=O)c1c(O)c(=O)c(C(=O)NCc3cc(OC(C)C)cc(Cl)c3F)cn12` [Example T26, (1S,2S)-N-(3-chloro-2-fluoro-5-isopropoxybenzyl)-9′-hydroxy-2-(methoxymethyl)-2′-methyl-1′,8′-dioxo-1′,2′,3′,8′-tetrahydrospiro[cyclopropane-1,4′-pyrido[1,2-a]pyrazine]-7′-carboxamide hydrochloride], the pEC50 was 7.82.

In the case of `CC(C)N1C[C@]2(C[C@H]2C(=O)N(C)C)n2cc(C(=O)NCc3cccc(Cl)c3F)c(=O)c(O)c2C1=O` [Example T14, (1R,2R)-N^7′-(3-chloro-2-fluorobenzyl)-9′-hydroxy-2′-isopropyl-N^2,N^2-dimethyl-1′,8′-dioxo-1′,2′,3′,8′-tetrahydrospiro[cyclopropane-1,4′ -pyrido[1,2-a]pyrazine]-2,7′-dicarboxamide hydrochloride], the pEC50 was 8.32.

For the molecule `CCN1C[C@@]2(C[C@@H]2CO)n2cc(C(=O)NCc3ccc(F)cc3F)c(=O)c(O)c2C1=O` [Example T1, (1S,2S)-N-(2,4-difluorobenzyl)-2′-ethyl-9′-hydroxy-2-(hydroxymethyl)-1′,8′-dioxo-1′,2′,3′,8′-tetrahydrospiro[cyclopropane-1,4′-pyrido[1,2-a]pyrazine]-7′-carboxamide hydrochloride], the pEC50 was 7.74.

For `CN1C[C@]2(C[C@H]2CO)n2cc(C(=O)NCc3cccc(Cl)c3F)c(=O)c(O)c2C1=O` [Example T23, (1R,2R)-N-(3-chloro-2-fluorobenzyl)-9′-hydroxy-2-(hydroxymethyl)-2′-methyl-1′,8′-dioxo-1′,2′,3′,8′-tetrahydrospiro[cyclopropane-1,4′-pyrido[1,2-a]pyrazine]-7′-carboxamide hydrochloride], the negative-log EC50 (pEC50) is 8.02.

For `CN1C[C@@]2(C[C@@H]2CO)n2cc(C(=O)NCc3cccc(Cl)c3F)c(=O)c(O)c2C1=O` [Example T15, (1S,2S)-N-(3-chloro-2-fluorobenzyl)-9′-hydroxy-2-(hydroxymethyl)-2′-methyl-1′,8′-dioxo-1′,2′,3′,8′-tetrahydrospiro[cyclopropane-1,4′-pyrido[1,2-a]pyrazine]-7′-carboxamide hydrochloride], the pEC50 is 7.70.

The same test, now with this note: MT-4 cells infected with HIV-1 NL4-3 strain (MOI 0.05), cultured 5 days, Cell Titer-Glo; read-out: antiviral activity (EC50).
As for `CO[C@H]1C[C@]2(CN(C)C(=O)c3c(O)c(=O)c(C(=O)NCc4cccc(Cl)c4F)cn32)C1` [Example 24, Monosodium 7′-(3-chloro-2-fluorobenzylcarbamoyl)-cis-3-methoxy-2′-methyl-1′,8′-dioxo-1′,2′,3′,8′-tetrahydrospiro[cyclobutane-1,4′-pyrido[1,2-a]pyrazin]-9′-olate], the pEC50 was 9.05.

With `CCN1C[C@@]2(C[C@@H]2COC)n2cc(C(=O)NCc3cccc(C(F)(F)F)c3F)c(=O)c(O)c2C1=O` [Example T27, (1S,2S)-2′-ethyl-N-(2-fluoro-3-(trifluoromethyl)benzyl)-9′-hydroxy-2-(methoxymethyl)-1′,8′-dioxo-1′,2′,3′,8′-tetrahydrospiro[cyclopropane-1,4′-pyrido[1,2-a]pyrazine]-7′-carboxamide], the pEC50 was 7.01.
